According to patent US8809352B2, “Sulfonamides as inhibitors of Bcl-2 family proteins for the treatments of cancer” (Novartis AG, priority 2009, dated 2014):

Target: BCL2 (Homo sapiens, UniProt P10415)
Assay: Biacore SPR solution inhibition assay of BCL-2 binding to peptide derivatized sensor surfaces
Conditions: SPR competition; 56 nM BCL2 pre-equilibrated with compound one hour; biotinylated BAK, BAD and NOXA peptide surfaces; 25° C.
Summary of the method: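 Solution-competition SPR at 25 °C in HEPES pH 7.4 buffer with 1.25 mM DTT and 3% DMSO: compounds (6-point threefold series, 16 μM to 0.004 nM) pre-equilibrated 1 h with 56 nM BCL2, then injected over captured biotinylated BAK, BAD and NOXA peptide surfaces. Binding levels relative to BCL2-only controls gave % inhibition.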

BCL2, sequence (P10415 whole entry): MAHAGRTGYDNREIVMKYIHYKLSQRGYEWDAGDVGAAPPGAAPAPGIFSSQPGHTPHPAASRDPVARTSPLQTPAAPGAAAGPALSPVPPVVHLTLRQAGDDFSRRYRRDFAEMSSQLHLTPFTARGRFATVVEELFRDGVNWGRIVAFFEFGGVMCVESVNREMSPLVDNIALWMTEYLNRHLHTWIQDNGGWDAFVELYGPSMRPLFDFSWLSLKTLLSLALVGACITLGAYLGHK

Row | Compound | IC50 [nM]
1 | [2H]C1(N2CCc3c(ncnc3NS(=O)(=O)c3ccc(N[C@H](CCN4CCN(C)CC4)CSc4ccccc4F)c(S(=O)(=O)C(F)(F)F)c3)C2)CCN(Cc2cc(F)ccc2-c2ccc(Cl)cc2)CC1 [Example 87, (R)-N-(7-(1-((4′-chloro-4-fluorobiphenyl-2-yl)methyl)-4-deuteropiperidin-4-yl)-5,6,7,8-tetrahydropyrido[3,4-d]pyrimidin-4-yl)-4-(1-(2-fluorophenylthio)-4-(4-methylpiperazin-1-yl)butan-2-ylamino)-3-(trifluoromethylsulfonyl)benzenesulfonamide] | 32
2 | [2H]C1(N2CCc3c(ncnc3NS(=O)(=O)c3ccc(N[C@H](CCN4CCOCC4)CSc4ccccc4)c(S(=O)(=O)C(F)(F)F)c3)C2)CCN([C@@H](C)c2ccccc2-c2ccc(Cl)cc2)CC1 [Example 88] | 2310
3 | [2H]C1(N2CCc3c(ncnc3NS(=O)(=O)c3ccc(N[C@H](CCN4CCN(CC)CC4)CSc4ccccc4)c(S(=O)(=O)C(F)(F)F)c3)C2)CCN(Cc2cc(F)ccc2-c2ccc(Cl)cc2)CC1 [Example 89, (R)-N-(7-(1-((4′-chloro-4-fluorobiphenyl-2-yl)methyl)-4-deuteropiperidin-4-yl)-5,6,7,8-tetrahydropyrido[3,4-d]pyrimidin-4-yl)-4-(4-(4-ethylpiperazin-1-yl)-1-(phenylthio)butan-2-ylamino)-3-(trifluoromethylsulfonyl)benzenesulfonamide] | 35
4 | [2H]C1(N2CCc3c(ncnc3NS(=O)(=O)c3ccc(N[C@H](CCN4CCOCC4)CSc4ccccc4)c(S(=O)(=O)C(F)(F)F)c3)C2)CCN(C(C)C2=C(c3ccc(Cl)cc3)CC(C)(C)CC2)CC1 (stereo partly drawn) [Example 90, N-(7-(1-(1-(2-(4-chlorophenyl)-4,4-dimethylcyclohex-1-enyl)ethyl) 4-deuteropiperidin-4-yl)-5,6,7,8-tetrahydropyrido[3,4-d]pyrimidin-4-yl)-4-((R)-4-D-morpholino-1-(phenylthio)butan-2-ylamino)-3-(trifluoromethylsulfonyl)benzenesulfonamide] | 149
5 | [2H]C1(N2CCc3c(ncnc3NS(=O)(=O)c3ccc(N[C@H](CCN4CCOCC4)CSc4ccccc4)c(S(=O)(=O)C(F)(F)F)c3)C2)CCN(CC2=C(c3ccc(Cl)cc3)CC(C)(C)CC2)CC1 [Example 91, (R)-N-(7-(1-((2-(4-chlorophenyl)-4,4-dimethylcyclohex-1-enyl)methyl)-4-deuteropiperidin-4-yl)-5,6,7,8-tetrahydropyrido[3,4-d]pyrimidin-4-yl)-4-(4-morpholino-1-(phenylthio)butan-2-ylamino)-3-(trifluoromethylsulfonyl)benzenesulfonamide] | 41
6 | O=S(=O)(Nc1nnc2n1CCN(C1CCN(Cc3ccccc3-c3ccc(Cl)cc3)CC1)CC2)c1ccc(N[C@H](CCN2CCOCC2)CSc2ccccc2)c(S(=O)(=O)C(F)(F)F)c1 [Example 92, N-{6-[1-(4′-Chloro-biphenyl-2-ylmethyl)-piperidin-4-yl]-5,6,7,8-tetrahydro-4H-1,2,3a,6-tetraaza-azulen-3-yl}-4-((R)-3-morpholin-4-yl-1-phenylsulfanylmethyl-propylamino)-3-trifluoromethanesulfonyl-benzenesulfonamide] | 194
7 | CN(C)CC[C@H](CSc1ccccc1)Nc1ccc(S(=O)(=O)Nc2nnc3n2CCN(C2CCN(Cc4ccccc4-c4ccc(Cl)cc4)CC2)CC3)cc1S(=O)(=O)C(F)(F)F [Example 93, N-{6-[1-(4′-Chloro-biphenyl-2-ylmethyl)-piperidin-4-yl]-5,6,7,8-tetrahydro-4H-1,2,3a,6-tetraaza-azulen-3-yl}-4-((R)-3-dimethylamino-1-phenyl-sulfanylmethyl-propylamino)-3-trifluoromethanesulfonyl-benzenesulfonamide] | 24
8 | O=S(=O)(Nc1nnc2n1CCN(C1CCN(Cc3ccccc3-c3ccc(Cl)cc3)CC1)C2)c1ccc(N[C@H](CCN2CCOCC2)CSc2ccccc2)c(S(=O)(=O)C(F)(F)F)c1 [Example 94] | 405
9 | O=S(=O)(Nc1nnc2n1CCN(C1CCCN(Cc3ccccc3-c3ccc(Cl)cc3)CC1)C2)c1ccc(N[C@H](CCN2CCOCC2)CSc2ccccc2)c(S(=O)(=O)C(F)(F)F)c1 (stereo partly drawn) [Example 95, N-{7-[1-(4′-Chloro-biphenyl-2-ylmethyl)-azepan-4-yl]-5,6,7,8-tetrahydro-[1,2,4]triazolo[4,3-a]pyrazin-3-yl}-4-((R)-3-morpholin-4-yl-1-phenylsulfanylmethyl-propylamino)-3-trifluoromethanesulfonyl-benzenesulfonamide] | 1900
10 | CC1CC(N2CCn3c(nnc3NS(=O)(=O)c3ccc(N[C@H](CCN4CCOCC4)CSc4ccccc4)c(S(=O)(=O)C(F)(F)F)c3)C2)CCN1Cc1ccccc1-c1ccc(Cl)cc1 (stereo partly drawn) [Example 96, N-{7-[1-(4′-Chloro-biphenyl-2-ylmethyl)-2-methyl-piperidin-4-yl]-5,6,7,8-tetrahydro-[1,2,4]triazolo[4,3-a]pyrazin-3-yl}-4-((R)-3-morpholin-4-yl-1-phenylsulfanylmethyl-propylamino)-3-trifluoromethanesulfonyl-benzenesulfonamide] | 144
11 | CN(C)CC[C@H](CSc1ccccc1)Nc1ccc(S(=O)(=O)Nc2ncnc3c2CCN(C2CCN(Cc4ccccc4-c4cccc(Cl)c4)CC2)C3)cc1S(=O)(=O)C(F)(F)F [Example 97, N-{7-[1-(3′-Chloro-biphenyl-2-ylmethyl)-piperidin-4-yl]-5,6,7,8-tetrahydro-pyrido[3,4-d]pyrimidin-4-yl}-4-((R)-3-dimethylamino-1-phenylsulfanylmethyl-propylamino)-3-trifluoromethanesulfonyl-benzenesulfonamide] | 49
12 | CN(C)CC[C@H](CSc1ccccc1)Nc1ccc(S(=O)(=O)Nc2ncnc3c2CCN(C2CCN(Cc4ccccc4-c4ccccc4Cl)CC2)C3)cc1S(=O)(=O)C(F)(F)F [Example 98] | 36
13 | CN(C)CC[C@H](CSc1ccccc1)Nc1ccc(S(=O)(=O)Nc2ncnc3c2CCN(C2CCN(Cc4ccccc4-c4ccc(C(F)(F)F)cc4)CC2)C3)cc1S(=O)(=O)C(F)(F)F [Example 99, (R)-4-(4-(dimethylamino)-1-(phenylthio)butan-2-ylamino)-N-(7-(1-((4′-(trifluoromethyl)biphenyl-2-yl)-methyl)piperidin-4-yl)-5,6,7,8-tetrahydropyrido[3,4-d]pyrimidin-4-yl)-3-(trifluoromethylsulfonyl)benzenesulfonamide] | 37
